A value given as a limit tells only on which side of the number the result lay.

This assay has as its system Phosphorylation of STAT6 in human A549 cells. In words: Phosphorylated STAT6 (pSTAT6) flow cytometry assay in human A549 cells. To be noted: read-out: STAT6 IL4 pSTAT6 assay in A549 cells: Average IC50. The assay is classed as cell-based. The source says:
Example 3. Phosphorylated STAT6 (pSTAT6) Flow Cytometry Assay in Human A549 Cells
Phosphorylation of STAT6 in human A549 cells was quantitatively measured using flow cytometry technology.
A general note: A flow cytometer gives signals particle by particle.

As to `CCC1CN(C(=O)c2cc3c(-c4ccccc4OC)cc(C4=CCCN(C(=O)CCn5ccnn5)C4)c(F)c3[nH]2)CC=C1c1ccccn1` (racemic) [Example I-1042], the IC50 (commonly the concentration at which inhibition is half-maximal) lay in the range of 10000 to 100000 nM.

Consider `COc1cc(F)cnc1N1CCN(C(=O)c2cc3c(-c4cncc(OC(F)F)c4)cc(C4=CCCN(C(=O)CCn5ccnn5)C4)c(F)c3[nH]2)CC1` [Example I-651], for which the IC50 was below 100 nM.

For the molecule `COc1ccccc1-c1cc(C2=CCCN(C(=O)CCn3ccnn3)C2)c(F)c2[nH]c(C(=O)N3CCN(c4nccc(-c5cn(C)c6ccccc56)n4)CC3)cc12` [Example I-906], the 50% inhibitory concentration (IC50) was below 100 nM.

Regarding `COc1cc(Cl)cnc1N1CCN(C(=O)c2cc3c(-c4cnc5ccccc5c4OC)cc(C4=CCCN(C(=O)CCn5ccnn5)C4)c(F)c3[nH]2)CC1` [Example I-1037], the IC50 was 100 to 1000 nM.

On to `CN(C)C(=O)c1cc2cc(C3=CCCN(C(=O)CCc4nncs4)C3)ccc2o1` [Example I-824], for which the IC50 lay within 100 to 1000 nM.

With `COc1ccccc1-c1cc(C2=CCCN(C(=O)CCn3ccnn3)C2)c(F)c2[nH]c(C(=O)N3CCN(c4ccc5nn(C)cc5c4C)CC3)cc12` [Example I-945], the IC50 is 100 to 1000 nM.

For the molecule `COc1ccccc1N1CCN(C(=O)c2cc3c(-c4cnccc4OC(C)(C)C)cc(C4=CCCN(C(=O)CCn5ccnn5)C4)c(F)c3[nH]2)CC1` [Example I-404], the half-inhibitory concentration (IC50) was above 100000 nM.

Consider `COc1ccccc1-c1cc(C2=CCCN(C(=O)CCn3ccnn3)C2)c(F)c2[nH]c(C(=O)N3CCN(c4cc5ccccc5nc4O)CC3)cc12` [Example I-952], for which the half-maximal inhibitory concentration (IC50) was below 100 nM.

Take `CCc1nc(C)ncc1-c1cc(C2=CCCN(C(=O)CCn3ccnn3)C2)c(F)c2[nH]c(C(=O)N3Cc4cnn(CC)c4C3)cc12` [Example I-764]: the half-maximal inhibitory concentration (IC50) was below 100 nM.

As for `COc1cc(F)cnc1N1CCN(C(=O)c2cc3c(-c4ccc(C(=O)N(C)C)cc4)cc(C4=CCCN(C(=O)CCn5ccnn5)C4)c(F)c3[nH]2)CC1` [Example I-1165], the 50% inhibitory concentration (IC50) was below 100 nM.

On to `CCc1nc(C)ccc1-c1cc(C(=O)N2CCN(c3nc(C)c(F)cc3OC)CC2)cc2cc(C3=CCCN(C(=O)CCn4ccnn4)C3)n(CC3CC3)c12` [Example I-546], for which the IC50 is above 100000 nM.

Turning to `COc1cc(C(F)(F)F)cnc1N1CCN(C(=O)c2cc3c(-c4cnc5ccccc5c4OC)cc(C4=CCCN(C(=O)CCn5ccnn5)C4)c(F)c3[nH]2)CC1` [Example I-446], the IC50 lay in the range of 1000 to 10000 nM.

For `Cc1cc(F)ccc1-c1cc(C2=CCCN(C(=O)CCn3ccnn3)C2)cc2cc(C(=O)N(C)C)oc12` [Example I-1083], the IC50 was below 100 nM.

Regarding `COc1ccccc1-c1cc(C2=CCCN(C(=O)CCn3ccnn3)C2)c(F)c2[nH]c(C(=O)N3CCN(c4cc(C)c(=O)n(C)c4)CC3)cc12` [Example I-1023], the IC50 was below 100 nM.

With `CCOc1cc(-c2cc(C3=CCCN(C(=O)CCn4ccnn4)C3)c(F)c3[nH]c(C(=O)N4CCN(c5ncc(F)cc5OC)CC4)cc23)cc(F)c1F` [Example I-642], the IC50 lay in the range of 100 to 1000 nM.

With `CCc1ccncc1-c1cc(C2=CCCN(C(C)=O)C2)c(F)c2[nH]c(C(=O)N3CCN(c4cc(F)cnc4OC)CC3)cc12` [Example I-699], the IC50 fell in the range of 10000 to 100000 nM.

Regarding `COc1ccccc1-c1cc(C2=CCCN(C(=O)CCn3ccnn3)C2)c(F)c2[nH]c(C(=O)N3CCN(c4ccccc4C(F)(F)F)CC3)cc12` [Example I-968], the IC50 was in the range of 100 to 1000 nM.

`COc1ccccc1-c1cc(C2=CCCN(C(=O)CCn3ccnn3)C2)c(F)c2[nH]c(C(=O)N3CCN(c4cc(=O)[nH]cc4F)CC3)cc12` [Example I-779]: the IC50 was below 100 nM.

As to `COc1ccccc1-c1cc(C2=CCCN(C(=O)CCn3ccnn3)C2)c(F)c2sc(C(=O)N3CCN(c4ncccc4OC)CC3)cc12` [Example I-346], the 50% inhibitory concentration (IC50) was below 100 nM.

Consider `COc1ccccc1-c1cc(C2=CCCN(C(=O)CCn3ccnn3)C2)c(F)c2[nH]c(C(=O)N3CCN(c4ncccn4)CC3)cc12` [Example I-863], for which the IC50 is below 100 nM.

For the molecule `COc1cc(F)cnc1N1CCN(C(=O)c2cc3c(C4=CCC5(CC4)CC5)cc(C4=CCCN(C(=O)CCn5ccnn5)C4)c(F)c3[nH]2)CC1` [Example I-1159], the half-maximal inhibitory concentration (IC50) lay in the range of 100 to 1000 nM.

Turning to `COc1cc(F)cnc1N1CCN(C(=O)c2cc3c(C4=CCN(C5CC5)CC4)cc(C4=CCCN(C(=O)CCn5ccnn5)C4)c(F)c3[nH]2)CC1` [Example I-1131], the half-inhibitory concentration (IC50) was below 100 nM.

Regarding `COc1ccc(F)cc1-c1cc(C2=CCCN(C(=O)CCn3ccnn3)C2)c(F)c2[nH]c(C(=O)N3CCN(c4ccccc4OC)CC3)cc12` [Example I-566], the IC50 is below 100 nM.

Take `COc1cccnc1N1CCN(C(=O)c2cc3c(-c4ccc(OC)c5c4OCCO5)cc(C4=CCCN(C(=O)CCn5ccnn5)C4)c(F)c3[nH]2)CC1` [Example I-583]: the IC50 is above 100000 nM.

`COc1ccccc1-c1cc(C2=CCCN(C(=O)CCn3ccnn3)C2)c(F)c2[nH]c(C(=O)N3CCN(c4ccnc(Nc5ccc(C#N)cc5)n4)CC3)cc12` [Example I-948]: the concentration for half-maximal inhibition (IC50) is below 100 nM.

As for `COc1ccccc1-c1cc(C2=CCCN(C(=O)CCn3ccnn3)C2)c(F)c2[nH]c(C(=O)N3CCN(c4ccccc4OC)CC3)cc12` [Example I-349], the IC50 was below 100 nM.

For “(R)-5-(1-(2-formyl-1,2,3,4-tetrahydroisoquinoline-3-carbonyl)-1,2,5,6-tetrahydropyridin-3-yl)-7-(2-methoxyphenyl)-N,N-dimethylbenzofuran-2-carboxamide [Example I-804]”, the IC50 was above 100000 nM.

Turning to `COc1cnc(N2CCN(C(=O)c3cc4c(-c5ccncc5OC)cc(C5=CCCN(C(=O)CCn6ccnn6)C5)c(F)c4[nH]3)CC2)c(OC)c1` [Example I-436], the IC50 is below 100 nM.

With `CN(C)C(=O)c1cc2cc(C3=CCCN(C(=O)CCn4ccnn4)C3)cc(NCc3ccc(C(F)(F)F)nc3)c2o1` [Example I-893], the IC50 is below 100 nM.

Turning to `Cc1c[nH]c2ncc(-c3cc(C4=CCCN(C(=O)CCn5ccnn5)C4)c(F)c4cc(C(=O)N(C)C)oc34)cc12` [Example I-1100], the concentration for half-maximal inhibition (IC50) was below 100 nM.

On to `COc1cc(F)cnc1N1CCN(C(=O)c2cc3c(C4CC4)cc(C4=CCCN(C(=O)CCn5ccnn5)C4)c(F)c3[nH]2)CC1` [Example I-694], for which the 50% inhibitory concentration (IC50) was above 100000 nM.

Turning to `COc1cc(F)ccc1-c1cc(C2=CCCN(C(=O)CCn3ccnn3)C2)c(F)c2[nH]c(C(=O)N3CCN(c4ncc(Cl)cc4OC)CC3)cc12` [Example I-459], the IC50 was below 100 nM.

For `COc1ccccc1-c1cc(C2=CCCN(C(=O)CCn3ccnn3)C2)c(F)c2[nH]c(C(=O)N3CCN(c4ncc(C)cc4OC)CC3)cc12` [Example I-939], the IC50 was below 100 nM.

For the molecule `COc1ccncc1-c1cc(C2=CCCN(C(=O)CCn3ccnn3)C2)c(F)c2[nH]c(C(=O)N3CCN(c4ncc(C(F)(F)F)cc4OC)CC3)cc12` [Example I-445], the IC50 was below 100 nM.

In the case of `COc1ccncc1-c1cc(C2=CCCN(C(=O)CCn3ccnn3)C2)c(F)c2[nH]c(C(=O)N(C)C)cc12` [Example I-1065], the concentration for half-maximal inhibition (IC50) is below 100 nM.

With `COc1ccccc1-c1cc(C2=CCCN(C(=O)CCn3ccnn3)C2)c(F)c2[nH]c(C(=O)N3CCN(C)CC3)cc12` [Example I-841], the half-maximal inhibitory concentration (IC50) was below 100 nM.

With `CCc1ccc(-c2cc(C(=O)N3CCN(c4ncc(F)cc4OC)CC3)cc3cc(C4=CCCN(C(C)=O)C4)n(CC4CC4)c23)c(C)n1` [Example I-793], the half-inhibitory concentration (IC50) is below 100 nM.

As for `CC(=O)N1CCC=C(c2cc(-c3ccccc3C(N)=O)c3cc(C(=O)N(C)C)[nH]c3c2F)C1` [Example I-1099], the IC50 was 100 to 1000 nM.

As for `COc1cccnc1N1CCN(C(=O)c2cc3c(-c4ccc5ncccc5c4OC)cc(C4=CCCN(C(=O)CCn5ccnn5)C4)c(F)c3[nH]2)CC1` [Example I-577], the concentration for half-maximal inhibition (IC50) is below 100 nM.

Turning to `COc1ccccc1-c1cc(C2=CCCN(C(=O)CCn3ccnn3)C2)c(F)c2[nH]c(C(=O)N3CCN(c4ncc(C(F)(F)F)cc4OC)CC3)cc12` [Example I-941], the IC50 is below 100 nM.

With `CNc1ccc(-c2cc(C3=CCCN(C(=O)C4Cc5ccccc5CN4C=O)C3)cc3[nH]c(C(=O)N(C)C)cc23)cc1` (stereo not drawn) [Example I-551], the IC50 was below 100 nM.

For `COc1cc(F)cnc1N1CCN(C(=O)c2cc3c(-c4cccc(-n5nc(C)cc5C)c4)cc(C4=CCCN(C(=O)CCn5ccnn5)C4)c(F)c3[nH]2)CC1` [Example I-620], the concentration for half-maximal inhibition (IC50) is below 100 nM.

In the case of `COc1c(F)cccc1-c1cc(C2=CCCN(C(=O)CCn3ccnn3)C2)cc2cc(C(=O)N(C)C)oc12` [Example I-1076], the IC50 was below 100 nM.

Consider `Cc1cc(-c2cc(C3=CCCN(C(=O)CCn4ccnn4)C3)cc3cc(C(=O)N(C)C)oc23)n(C)n1` [Example I-1070], for which the half-maximal inhibitory concentration (IC50) was below 100 nM.

`COc1ccccc1-c1cc(C2=CCCN(C(=O)CCn3ccnn3)C2)c(F)c2[nH]c(C(=O)N3CCN(c4ccnnc4O)CC3)cc12` [Example I-908]: the IC50 is below 100 nM.

Regarding `COc1ccncc1-c1cc(C2=CCCN(C(=O)CCn3ccnn3)C2)c(F)c2[nH]c(C(=O)N3CCN(c4ccc(F)cc4OC)CC3)cc12` [Example I-482], the IC50 was below 100 nM.

`COc1cc(F)cnc1N1CCN(C(=O)c2cc3c(-c4cnn(Cc5ccccc5)c4)cc(C4=CCCN(C(=O)CCn5ccnn5)C4)c(F)c3[nH]2)CC1` [Example I-1115]: the IC50 is below 100 nM.

As to `COc1ccccc1-c1cc(C2=CCCN(C(=O)CCn3ccnn3)C2)c(F)c2[nH]c(C(=O)N3CCc4cccnc43)cc12` [Example I-848], the 50% inhibitory concentration (IC50) is below 100 nM.

Turning to `COc1ccccc1-c1cc(C2=CCCN(C(=O)CCn3ccnn3)C2)c(F)c2[nH]c(C(=O)N3CC4CCN(Cc5ccccc5)C4C3)cc12` (stereo not drawn) [Example I-987], the IC50 lay within 1000 to 10000 nM.

As for `CCc1cc(C(F)F)ncc1-c1cc(C2=CCCN(C(=O)CCn3ccnn3)C2)c(F)c2[nH]c(C(=O)N3CCN(c4nc(C)c(F)cc4OC)CC3)cc12` [Example I-763], the IC50 is below 100 nM.

In the case of `COc1ccccc1-c1cc(C2=CCCN(C(=O)CCn3ccnn3)C2)c(F)c2[nH]c(C(=O)N3CCN(c4cc(C#N)cc5[nH]ccc45)CC3)cc12` [Example I-771], the IC50 was below 100 nM.

These data come from patent US20250214977A1, “STAT6 INHIBITORS AND USES THEREOF” (Kymera Therapeutics, Inc., priority 2024, published 2025).
